Data: patent EP4786486A1, “PEPTIDES FOR TREATING CARDIAC DISEASES” (Universidad Complutense De Madrid, priority 2023, dated 2025)
Where no end group is shown, it is not given here.

How the values were obtained:
Type in all cases: cell-based
human Nav1.5 channels [1] = experiment: Density of INa by whole-cell patch-clamp in CHO cells co-transfected with the cDNA encoding the peptide; details: CHO cells expressing Nav1.5 plus cDNA of the peptide, vs cells transfected only with Nav1.5 channels
Procedure: (§1) To analyse the effect of the peptides designed in example 1 on INa and IK1, the cDNA that encodes SEQ ID NO: 3 or SEQ ID NO: 4, described in SEQ ID NO: 5 and 20, respectively, was cloned into a pcDNA3.1^(+)® vector (Invitrogen) for transfection of Chinese hamster ovary (CHO) cells that were in turn transfected with the cDNA that encodes the human Nav1.5 channels (SEQ ID NO: 21). The CHO cells were further co-transfected with the EBO-pcD leu 2 vector (0.5 µg), which encodes the expression of the CD8 surface antigen. The subsequent addition of anti-CD8 antibody, bonded to Dynabeads M450® microspheres, allowed the cells that had been transfected to be identified. […] The currents were recorded at 20-22°C using an Axopatch 200B amplifier, filtered at half the sampling frequency and stored in a computer for further analysis. […] The capacitive current artefacts generated after the application of pulses from 0 mV to +10 mV were recorded at 50 kHz (filtered at 10 kHz) to calculate the capacitance of the cell, the access resistance and the input impedance. […] INa was recorded by applying 50 ms pulses from a holding potential of -120 mV to potentials between -80 and +50 mV in 5 mV increments. […]

human Kir2.1 channels [2] = experiment: Density of IKir2.1 by whole-cell patch-clamp in CHO cells co-transfected with the cDNA encoding the peptide; details: CHO cells expressing Kir2.1 plus cDNA of the peptide (SEQ ID NO: 5), vs cells transfected only with Kir2.1 channels
Procedure: (§2) To do this, CHO cells were transfected with the cDNA that encodes the human cardiac channels (Kir2.1) that generate IK1 (Origene, USA) (SEQ ID NO: 22), co-transfecting cells, or not, with the cDNA described in SEQ ID NO: 5. […] The sampling frequency was 4 kHz and the data, filtered at a frequency of 2 kHz, were stored on hard disks for further analysis using the CLAMPFIT application of the pCLAMP software. The current (IKir2.1) was recorded by applying 250 ms pulses from -120 to +20 mV from a holding potential of -60 mV. The density of the same was obtained by normalising the amplitude of IKir2.1 at the end of the pulse by the capacitance of each cell (pA/pF). […] Like in example 2.1, each point represents the mean±SEM of "n" experiments obtained from at least 3 different CHO cell plates. One-way ANOVA followed by the Tukey test. * P<0.05 vs. cells transfected only with Kir2.1 channels.

[3] = system: human iPSC-derived cardiomyocytes; experiment: INa, IK1 and INaL by patch-clamp in cardiomyocytes infected with adeno-associated virus encoding the peptide; details: hiPSC-CM
From the text: One-way ANOVA followed by the Tukey test.

[4] = system: human minimal promoter of the KCNJ2 gene; experiment: Luciferase assay in hEK-293 cells, minimal promoter of KCNJ2; details: hEK-293, co-transfected with cDNA SEQ ID NO: 5, 48 hours
Procedure: 48 hours after transfection, luciferase assays were performed using the LightSwitch Luciferase Assay reagent, also from Active Motif, and a Berthold luminometer. All assays were performed in triplicate and each point represents the mean of each technical triplicate.

human Nav1.5 channels [5] = biological target: T1, human Nav1.5 channels (Homo sapiens, UniProt Q14524); experiment: INa density, whole-cell patch-clamp in CHO cells co-transfected with Nav1.5 and the cDNA encoding the peptide; details: vs. cells transfected only with Nav1.5 channels, various membrane potentials, P<0.05
T1 construct: expressed in transfected cells; host or cells: CHO (Chinese hamster ovary) cells
Procedure: as §1

human Kir2.1 channels [6] = experiment: IKir2.1 density, whole-cell patch-clamp in CHO cells co-transfected with Kir2.1 and the cDNA encoding the peptide; details: CHO cells co-transfected with cDNA SEQ ID NO: 5; vs. cells transfected only with Kir2.1 channels; P<0.05
Procedure: as §2

[7] = infection 48 hours before recording, vs Ad-td-Tomato

T1 sequence (Q14524 1-2015 isoform Q14524-2): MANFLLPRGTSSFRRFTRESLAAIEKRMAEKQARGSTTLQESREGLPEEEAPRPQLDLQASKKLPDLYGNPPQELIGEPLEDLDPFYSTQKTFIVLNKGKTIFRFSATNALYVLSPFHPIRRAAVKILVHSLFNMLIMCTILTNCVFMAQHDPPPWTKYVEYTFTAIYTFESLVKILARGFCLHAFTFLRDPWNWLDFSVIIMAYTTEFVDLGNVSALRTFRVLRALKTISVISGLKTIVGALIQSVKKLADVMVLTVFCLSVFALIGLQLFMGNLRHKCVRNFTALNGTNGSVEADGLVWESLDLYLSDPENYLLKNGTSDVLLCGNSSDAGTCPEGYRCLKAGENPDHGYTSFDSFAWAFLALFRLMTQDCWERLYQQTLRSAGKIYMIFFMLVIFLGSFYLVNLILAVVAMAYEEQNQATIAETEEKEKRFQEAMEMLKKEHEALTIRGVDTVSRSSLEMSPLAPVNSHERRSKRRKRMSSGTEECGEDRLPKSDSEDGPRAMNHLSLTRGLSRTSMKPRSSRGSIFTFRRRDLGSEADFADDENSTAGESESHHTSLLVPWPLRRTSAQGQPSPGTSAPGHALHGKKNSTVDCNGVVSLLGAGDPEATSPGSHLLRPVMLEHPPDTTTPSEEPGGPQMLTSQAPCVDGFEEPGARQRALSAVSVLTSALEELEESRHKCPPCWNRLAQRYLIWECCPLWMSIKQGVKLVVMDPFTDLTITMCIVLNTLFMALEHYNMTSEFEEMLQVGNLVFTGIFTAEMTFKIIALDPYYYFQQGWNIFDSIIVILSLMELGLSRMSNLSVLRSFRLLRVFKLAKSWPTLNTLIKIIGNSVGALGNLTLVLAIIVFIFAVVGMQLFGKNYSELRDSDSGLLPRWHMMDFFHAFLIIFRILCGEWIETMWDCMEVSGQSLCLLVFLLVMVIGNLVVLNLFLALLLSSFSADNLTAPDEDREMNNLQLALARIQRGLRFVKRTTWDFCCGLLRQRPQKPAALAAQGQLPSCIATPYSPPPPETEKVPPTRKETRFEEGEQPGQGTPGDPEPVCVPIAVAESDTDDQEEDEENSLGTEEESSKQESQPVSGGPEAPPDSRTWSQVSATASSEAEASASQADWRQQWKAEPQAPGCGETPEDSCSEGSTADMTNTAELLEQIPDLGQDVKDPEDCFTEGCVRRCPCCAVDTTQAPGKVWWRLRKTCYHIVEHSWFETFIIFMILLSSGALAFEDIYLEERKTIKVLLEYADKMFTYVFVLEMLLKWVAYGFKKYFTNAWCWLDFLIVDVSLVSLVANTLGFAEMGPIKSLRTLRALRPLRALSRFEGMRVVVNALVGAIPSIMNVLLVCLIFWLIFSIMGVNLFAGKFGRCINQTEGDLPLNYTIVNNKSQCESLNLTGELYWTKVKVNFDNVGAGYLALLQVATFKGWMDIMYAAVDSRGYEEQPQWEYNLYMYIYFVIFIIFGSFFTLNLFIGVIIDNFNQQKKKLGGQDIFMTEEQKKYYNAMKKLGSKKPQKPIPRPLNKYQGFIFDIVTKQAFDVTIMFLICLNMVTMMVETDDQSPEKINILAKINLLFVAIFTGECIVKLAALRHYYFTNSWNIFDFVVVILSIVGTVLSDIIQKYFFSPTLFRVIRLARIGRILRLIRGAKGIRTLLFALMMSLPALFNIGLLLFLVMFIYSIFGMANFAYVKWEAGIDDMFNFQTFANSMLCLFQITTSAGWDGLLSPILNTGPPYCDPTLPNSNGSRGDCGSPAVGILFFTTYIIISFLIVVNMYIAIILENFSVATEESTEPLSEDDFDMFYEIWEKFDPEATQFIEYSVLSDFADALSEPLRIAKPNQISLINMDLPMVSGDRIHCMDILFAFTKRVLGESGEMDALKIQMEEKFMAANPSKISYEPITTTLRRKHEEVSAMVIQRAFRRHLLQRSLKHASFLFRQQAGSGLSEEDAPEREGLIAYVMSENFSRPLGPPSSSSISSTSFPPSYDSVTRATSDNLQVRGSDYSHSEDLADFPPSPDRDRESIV

Sequence	density of INa (human Nav1.5 channels [1])	density of IKir2.1 (human Kir2.1 channels [2])	INaL ([3]; TTX (10 µM) sensitive sustained current as percentage of the current peak)	density of IK1 [3, 7]	density of INa [3, 7]	effect on the minimal promoter of the human KCNJ2 gene [4]	density of INa (human Nav1.5 channels [5])	density of IKir2.1 (human Kir2.1 channels [6])
RFTRESLAAIE [DECA-11, RFTRESLAAIE]	significantly increase the density of INa	significantly increase the density of IKir2.1	does not increase INaL	significantly increase the density of INa and IK1	significantly increase the density of INa and IK1	protranscriptional effect	–	–
RFTRESLAAIE (listed as Homo sapiens) [SEQ ID NO: 3, 11-amino acid peptide, amino acids 15-25 of human Nav1.5]	–	–	–	–	–	–	significantly increase	significantly increase
